From BigSolDB 2.1
Where a SMILES comes first, the peptide text is derived from it. [ ]: non-standard residue; d: D form. pGlu = O=C1CC[C@@H](C(=O)O)N1; Thz = O=C(O)[C@@H]1CSCN1

O=C1CC[C@@H](C(=O)N2CSC[C@H]2C(=O)O)N1 ([pGlu]-[Thz]-OH)
solubility (mole fraction)
Details	278.15 K	283.15 K	288.15 K	293.15 K	298.15 K	303.15 K	308.15 K	313.15 K	318.15 K	323.15 K
in DMF	0.00535	0.00604	0.00734	0.00953	0.0123	0.0151	0.0182	0.0214	0.0253	0.0291
in acetone	3.1e-05	5e-05	8.5e-05	0.000121	0.000176	0.000249	0.000354	0.000522	0.000693	0.000925
in acetonitrile	0.000297	0.000336	0.000426	0.00052	0.000691	0.000855	0.00107	0.00132	0.00159	0.00195
in benzyl alcohol	0.00226	0.00262	0.00307	0.00374	0.00452	0.00553	0.00661	0.00806	0.0101	0.0128
in ethanol	8.3e-05	0.000128	0.000198	0.000303	0.00045	0.000679	0.000986	0.00144	0.00208	0.00292
in isopropanol	9.1e-05	0.000138	0.000209	0.000307	0.000454	0.000663	0.000945	0.00136	0.0019	0.00265
in methanol	0.00121	0.00137	0.00157	0.00184	0.00216	0.00257	0.00305	0.00365	0.00437	0.00528
in n-butanol	0.000227	0.000282	0.000354	0.000439	0.000566	0.00072	0.000908	0.0012	0.00151	0.00197
in water	0.00163	0.00181	0.00205	0.00234	0.0027	0.00313	0.00368	0.00434	0.00509	0.00604
